Data taken from ChEMBL document CHEMBL1121960, “Importance of the aromatic ring in adrenergic amines. 8. 2-(Aminomethyl)-trans-2-decalols as inhibitors of norepinephrine N-methyltransferase” (J Med Chem, 1982).

T1: Phenylethanolamine N-methyltransferase (Bos taurus, UniProt P10938)
T1 sequence (P10938 whole entry): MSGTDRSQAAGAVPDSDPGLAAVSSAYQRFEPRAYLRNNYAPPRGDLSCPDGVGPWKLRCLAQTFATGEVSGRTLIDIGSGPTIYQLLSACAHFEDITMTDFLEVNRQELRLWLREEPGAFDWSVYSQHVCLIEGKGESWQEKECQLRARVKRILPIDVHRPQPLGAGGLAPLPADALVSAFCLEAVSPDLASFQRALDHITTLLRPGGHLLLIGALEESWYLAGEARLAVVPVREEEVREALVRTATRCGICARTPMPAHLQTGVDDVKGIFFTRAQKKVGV


Legend:
[1] = Vmax was determined; type: ADME
[2] = molecular target: T1, Phenylethanolamine N-methyltransferase; experiment: Tested for inhibitory activity against bovine adrenal norepinephrine N-methyl-transferase using phenylethanolamine as substrate
[3] = compound: NC[C@]1(O)CCC2CCCCC2C1; experiment: (§1) Tested for inhibitory constant against bovine adrenal norepinephrine N-methyl-transferase
[4] = compound: NCC1(O)CCCCCCCCCC1; experiment: as §1
[5] = compound: NC[C@@]1(O)CCC2CCCCC2C1; experiment: as §1

| Molecule | Vmax [1] [nmol/min/mg] | Ki [2] [µM] | Km [3] [µM] | Km [4] [µM] | Km [5] [µM] |
| --- | --- | --- | --- | --- | --- |
| NC[C@@]1(O)CCC2CCCCC2C1 (some centres undefined) | 0.03 | 5.63 |  |  |  |
| NCC1(O)CCCCCCCCCC1 | 0.04 | 3.56 |  |  |  |
| NC[C@]1(O)CCC2CCCCC2C1 (some centres undefined) | 0.024 | 3.8 |  |  |  |
| Phenylethanolamine N-methyltransferase (Bos taurus), P10938 (protein) MSGTDRSQAAGAVPDSDPGLAAVSSAYQRFEPRAYLRNNYAPPRGDLSCPDGVGPWKLRCLAQTFATGEVSGRTLIDIGSGPTIYQLLSACAHFEDITMTDFLEVNRQELRLWLREEPGAFDWSVYSQHVCLIEGKGESWQEKECQLRARVKRILPIDVHRPQPLGAGGLAPLPADALVSAFCLEAVSPDLASFQRALDHITTLLRPGGHLLLIGALEESWYLAGEARLAVVPVREEEVREALVRTATRCGICARTPMPAHLQTGVDDVKGIFFTRAQKKVGV |  |  | 5.7 | 6.8 | 4.7 |
